target: T1, p53 Y220C (Homo sapiens, UniProt P04637, Y220C); test: In vitro DNA binding activity assay (HTRF / TR-FRET): stabilization of p53 Y220C and increase of its DNA binding activity; format: biochemical; conditions: recombinant His-tagged p53 Y220C DNA binding domain (aa 94-312), biotin-labeled consensus DNA, incubated at 27° C. or 29° C. for 60 min
T1 construct: The recombinant protein was a truncation mutant containing only amino acids 94-312 of p53; made in house; host or cells: E. coli
T1 sequence (P04637 94-312, change not shown): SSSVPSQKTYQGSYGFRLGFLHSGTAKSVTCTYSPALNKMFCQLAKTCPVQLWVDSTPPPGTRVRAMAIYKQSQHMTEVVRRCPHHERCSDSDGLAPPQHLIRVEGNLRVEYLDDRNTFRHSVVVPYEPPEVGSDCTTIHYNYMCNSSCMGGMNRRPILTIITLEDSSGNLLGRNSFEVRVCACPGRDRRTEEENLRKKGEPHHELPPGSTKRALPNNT
Description: The ability of a compound of the invention to stabilize p53 Y220C and increase the DNA binding activity of p53 Y220C was measured by a homogeneous time-resolved fluorescence (HTRF) assay. Recombinant His-tagged p53 Y220C used in the HTRF assay was expressed in the bacterium E. coli.
The binding of the recombinant His-tagged p53 Y220C protein and the biotin-labeled consensus DNA was measured using fluorescence resonance energy transfer (FRET). For the FRET assay, the binding between the p53 mutant and the DNA sequence was measured by detecting the fluorescence of the interaction between an anti-His antibody conjugated to allophycocyanin (APC) and streptavidin conjugated to europium to detect the biotin-labeled DNA.
The test compounds were prepared as 4.5 mM stock solutions in dimethyl sulfoxide (DMSO). The compounds of the disclosure were used to test the stabilization of p53 Y220C and increase in DNA binding activity of p53 Y220C. The stock solutions were then serially diluted 3-fold in DMSO, and 1.2 μL of the diluted solutions was added to each well of a 384-well polypropylene black plate.
The test and control samples were spun at 1200 rpm for 1 minute and incubated at room temperature for 15 minutes. […] The plates were spun at 1200 rpm for 1 minute and incubated at room temperature for 20 minutes. The assay signals were monitored by reading excitation at 340 nm, and emission fluorescence at 615 nm and 665 nm on a plate reader.
The percentage of activation of protein DNA binding in the presence of a compound of the invention compared to the absence of the compound was denoted by a SC150 value, which indicated the concentration of the compound required to increase the DNA binding activity by 50%. The SC150 values were calculated using either Prism™ or ActivityBase™.

SC150 (concentration of the compound required to increase the DNA binding activity by 50%), + (+ = 0 μM ≤ SC150 < 0.05 μM):
COc1cc(S(C)(=O)=O)ccc1NCC#Cc1cc2c(N[C@@H]3CCN(C)C[C@H]3F)cccc2n1CC(F)(F)F (racemic) [Compound 769A, (rac)-N-((3R,4R)-3-fluoro-1-methylpiperidin-4-yl)-2-(3-((2-methoxy-4-(methylsulfonyl)phenyl)amino)prop-1-yn-1-yl)-1-(2,2,2-trifluoroethyl)-1H-indol-4-amine]
COC(=O)c1ccc(NCC#Cc2cc3c(N[C@H]4CCN(C)C[C@@H]4F)cccc3n2CC(F)(F)F)c(OC)c1 (racemic) [Compound 777A, rac-Methyl 4-{[3-(4-{[(3R,4R)-3-fluoro-1-methylpiperidin-4-yl]amino}-1-(2,2,2-trifluoroethyl)-1H-indol-2-yl)prop-2-yn-1-yl]amino}-3-methoxybenzoate]
COC(=O)c1ccc(NCC#Cc2cc3c(N[C@H]4CCN(C)C[C@H]4F)cccc3n2CC(F)(F)F)c(OC)c1 (racemic) [Compound 778A, rac-methyl 4-{[3-(4-{[(3R,4S)-3-fluoro-1-methylpiperidin-4-yl]amino}-1-(2,2,2-trifluoroethyl)-1H-indol-2-yl)prop-2-yn-1-yl]amino}-3-methoxybenzoate]
COc1cc(C(=O)O)ccc1NCC#Cc1cc2c(N[C@H]3CCN(C)C[C@H]3F)cccc2n1CC(F)(F)F (racemic) [Compound 779A, rac-4-{[3-(4-{[(3R,4S)-3-fluoro-1-methylpiperidin-4-yl]amino}-1-(2,2,2-trifluoroethyl)-1H-indol-2-yl)prop-2-yn-1-yl]amino}-3-methoxybenzoic acid]
COc1cc(C(N)=O)ccc1NCC#Cc1cc2c(N[C@H]3CCN(C)C[C@H]3F)cccc2n1CC(F)(F)F (racemic) [Compound 782A, rac-4-{[3-(4-{[(3R,4S)-3-fluoro-1-methylpiperidin-4-yl]amino}-1-(2,2,2-trifluoroethyl)-1H-indol-2-yl)prop-2-yn-1-yl]amino}-3-methoxybenzamide]
CNC(=O)c1ccc(NCC#Cc2cc3c(N[C@H]4CCN(C)C[C@H]4F)cccc3n2CC(F)(F)F)c(OC)c1 (racemic) [Compound 783A, 4-[3-[4-[[(3R,4S)-3-fluoro-1-methyl-4-piperidyl]amino]-1-(2,2,2-trifluoroethyl)indol-2-yl]prop-2-ynylamino]-3-methoxy-N-methyl-benzamide]
CNC(=O)c1ccc(NCC#Cc2cc3c(N[C@H]4CCN(C)C[C@@H]4F)cccc3n2CC(F)(F)F)c(OC)c1 (racemic) [Compound 785A, rac-4-{[3-(4-{[(3R,4R)-3-fluoro-1-methylpiperidin-4-yl]amino}-1-(2,2,2-trifluoroethyl)-1H-indol-2-yl)prop-2-yn-1-yl]amino}-3-methoxy-N-methylbenzamide]
COc1cc(S(C)(=O)=O)ccc1NCC#Cc1cc2c(N[C@H]3CCN(C(C)C)C[C@H]3F)cccc2n1CC(F)(F)F (racemic) [Compound 795A, (rac)-N-[(3R,4S)-3-fluoro-1-(propan-2-yl)piperidin-4-yl]-2-{3-[(4-methanesulfonyl-2-methoxyphenyl)amino]prop-1-yn-1-yl}-1-(2,2,2-trifluoroethyl)-1H-indol-4-amine]
COc1cc(C(=O)O)ccc1NCC#Cc1cc2c(N[C@H]3CCN(C(C)C)C[C@H]3F)cccc2n1CC(F)(F)F (racemic) [Compound 796A, 4-((3-(4-(((3R,4S)-3-fluoro-1-isopropylpiperidin-4-yl)amino)-1-(2,2,2-trifluoroethyl)-1H-indol-2-yl)prop-2-yn-1-yl)amino)-3-methoxybenzoic acid]
CCOC(=O)c1ccc(NCC#Cc2cc3c(N[C@H]4CCN(C(C)C)C[C@H]4F)cccc3n2CC(F)(F)F)c(OC)c1 (racemic) [Compound 797A, ethyl 4-((3-(4-(((3R,4S)-3-fluoro-1-isopropylpiperidin-4-yl)amino)-1-(2,2,2-trifluoroethyl)-1H-indol-2-yl)prop-2-yn-1-yl)amino)-3-methoxybenzoate]
CCOC(=O)c1ccc(NCC#Cc2cc3c(N[C@H]4CCN(C)C[C@H]4F)cccc3n2CC(F)(F)F)c(OC)c1 (racemic) [Compound 798A, rac-ethyl 4-{[3-(4-{[(3R,4S)-3-fluoro-1-methylpiperidin-4-yl]amino}-1-(2,2,2-trifluoroethyl)-1H-indol-2-yl)prop-2-yn-1-yl]amino}-3-methoxybenzoate]
COc1cc(S(N)(=O)=O)ccc1NCC#Cc1cc2c(N[C@@H]3CCN(C[C@H](COC(C)=O)OC(C)=O)C[C@@H]3F)cccc2n1CC(F)(F)F (racemic) [Compound 799A, (2R)-1-(acetyloxy)-3-[(3RS,4SR)-3-fluoro-4-[(2-{3-[(2-methoxy-4-sulfamoylphenyl)amino]prop-1-yn-1-yl}-1-(2,2,2-trifluoroethyl)-1H-indol-4-yl)amino]piperidin-1-yl]propan-2-yl acetate]
COc1cc(C(=O)OCC(C)O)ccc1NCC#Cc1cc2c(N[C@H]3CCN(C)C[C@H]3F)cccc2n1CC(F)(F)F (mixture of isomers) [Compound 806A, rac-2-hydroxypropyl 4-{[3-(4-{[(3R,4S)-3-fluoro-1-methylpiperidin-4-yl]amino}-1-(2,2,2-trifluoroethyl)-1H-indol-2-yl)prop-2-yn-1-yl]amino}-3-methoxybenzoate]
COc1cc(S(C)(=O)=O)ccc1NCC#Cc1cc2c(N[C@H]3CCN(CC(N)=O)C[C@H]3F)cccc2n1CC(F)(F)F (racemic) [Compound 811A, rac-2-[(3R,4S)-3-fluoro-4-[(2-{3-[(4-methanesulfonyl-2-methoxyphenyl)amino]prop-1-yn-1-yl}-1-(2,2,2-trifluoroethyl)-1H-indol-4-yl)amino]piperidin-1-yl]acetamide]
COCCNC(=O)c1ccc(NCC#Cc2cc3c(N[C@H]4CCN(C)C[C@H]4F)cccc3n2CC(F)(F)F)c(OC)c1 (racemic) [Compound 814A, rac-4-{[3-(4-{[(3R,4S)-3-fluoro-1-methylpiperidin-4-yl]amino}-1-(2,2,2-trifluoroethyl)-1H-indol-2-yl)prop-2-yn-1-yl]amino}-3-methoxy-N-(2-methoxyethyl)benzamide]
